In US10370380B2, “Octahydropyrrolo[3,4-c]pyrrole derivatives and uses thereof” (Sunshine Lake Pharma Co., Ltd., priority 2015, dated 2019):
Where two headings read alike, the source gives them in different places.

Tests used:
humanized OX1 receptor = target: T1, humanized OX1 receptor (Homo sapiens, UniProt O43613); experiment: Antagonistic effect on humanized OX1 receptor, calcium flux by fluorescence detection in CHO cells; format: cell-based; conditions: CHO cells, calcium flux induced by 3 nM orexin A; read-out: OX1 IC50
T1 construct: expressed in transfected cells; host or cells: CHO (Chinese hamster ovary) cells
T1 sequence (O43613 1-425): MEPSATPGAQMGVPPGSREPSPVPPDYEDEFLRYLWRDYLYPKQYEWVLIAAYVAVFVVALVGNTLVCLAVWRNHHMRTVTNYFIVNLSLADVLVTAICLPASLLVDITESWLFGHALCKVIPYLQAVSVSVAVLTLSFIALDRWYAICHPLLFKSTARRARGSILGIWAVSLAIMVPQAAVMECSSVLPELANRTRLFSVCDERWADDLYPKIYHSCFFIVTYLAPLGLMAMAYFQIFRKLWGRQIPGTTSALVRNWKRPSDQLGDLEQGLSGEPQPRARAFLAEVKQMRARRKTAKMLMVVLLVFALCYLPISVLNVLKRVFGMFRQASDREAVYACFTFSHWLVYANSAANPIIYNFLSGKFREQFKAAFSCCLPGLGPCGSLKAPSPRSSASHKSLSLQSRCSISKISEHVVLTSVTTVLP
Experimental: The capability of the compounds provided herein to antagonize humanized OX1 receptor expressed in Chinese hamster ovary (CHO) cells was evaluated by the influence of the compounds disclosed herein on calcium flux in cells induced by agonist detected by a method of fluorescence detection. The cells were suspended in DMEM culture medium (invitrogen), and then added to a microplate with an average density of 2×10^4 cells/well. The Hank's balanced salt solution (pH 7.4) containing fluorescent probes (Fluo4 NW, Invitrogen), probenecid (invitrogen), 20 mM hydroxyethyl piperazine acetic sulfuric acid (invitrogen) was added to the above microplate, and then incubated together with the cells at 37° C. for 60 min, further incubated at 22° C. for 15 min. The microplate was placed in a microplate reader (CellLux, PerkinElmer), and to which was added the test compound or reference antagonist or Hank's balanced salt solution, 5 min later, 3 nM of orexin A or Hank's balanced salt solution (as a blank contrast) was added. […] The experimental results were expressed as an inhibition percentage relative to a control group (the group with 3 nM of orexin A).
The standard reference antagonist is SB334867, and IC50 values were calculated by the dose-effect curve obtained from a series of concentrations of the experimental test.

humanized OX2 receptor = target: T2, humanized OX2 receptor (Homo sapiens, UniProt O43614); experiment: Antagonistic effect on humanized OX2 receptor, calcium flux by fluorescence detection in HEK-293 cells; format: cell-based
T2 construct: expressed in transfected cells; host or cells: HEK-293 cells
T2 sequence (O43614 1-444): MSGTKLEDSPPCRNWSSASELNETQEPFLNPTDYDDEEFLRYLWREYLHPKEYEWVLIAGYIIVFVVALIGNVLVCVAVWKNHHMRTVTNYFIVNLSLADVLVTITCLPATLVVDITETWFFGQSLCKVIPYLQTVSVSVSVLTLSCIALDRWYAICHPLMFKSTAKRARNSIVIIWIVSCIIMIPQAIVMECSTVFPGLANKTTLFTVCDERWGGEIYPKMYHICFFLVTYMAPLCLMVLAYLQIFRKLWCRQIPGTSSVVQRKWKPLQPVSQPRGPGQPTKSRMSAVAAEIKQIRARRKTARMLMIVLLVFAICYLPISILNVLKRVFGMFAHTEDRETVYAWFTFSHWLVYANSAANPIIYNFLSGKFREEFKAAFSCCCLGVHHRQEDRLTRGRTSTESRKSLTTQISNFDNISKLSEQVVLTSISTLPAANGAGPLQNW
Experimental: The capability of the compounds provided herein to antagonize humanized OX2 receptors expressed in HEK-293 cells was evaluated by the influence of the compounds disclosed herein on calcium flux in cells induced by agonist detected by a method of fluorescence detection. The cells were suspended in DMEM culture medium (invitrogen), and then added to a microplate with an average density of 3×10^4 cells/well. The Hank's balanced salt solution (pH 7.4) containing fluorescent probes (Fluo4 NW, Invitrogen), probenecid (invitrogen), 20 mM […] (invitrogen) was added to the above microplate, and then incubated together with the cells at 37° C. for 60 min, further incubated at 22° C. for 15 min. The microplate was placed in a microplate reader (CellLux, PerkinElmer), and to which was added the test compound or reference antagonist or Hank's balanced salt solution, 5 min later, 10 nM of orexin B or Hank's balanced salt solution (as a blank contrast) was added. […] The experimental results were expressed as an inhibition percentage relative to a control group (the group with 10 nM of orexin B).
The standard reference antagonist is JNJ10397049, and IC50 values were calculated by the dose-effect curve obtained from a series of concentrations of the experimental test.

[1] = Pharmacokinetic evaluation after intravenous or gavage administration to rats; format: in vivo, SD rats; conditions: SD, rat, in vivo
Experimental: (§1) The compounds disclosed herein were administered in form of a saline solution containing 5% DMSO, 5% Kolliphor HS 15, 2% (2% HCl) and 88% Saline, or a solution containing 10% DMSO, 10% Kolliphor HS 15 and 80% physiological saline to the subject animals. For intravenous administration, the animals were administered with a dose of 1 mg/kg or 2 mg/kg, and vein blood samples (0.3 mL) were collected at the time points of 0.083, 0.25, 0.5, 1.0, 2.0, 4.0, 6.0, 8.0 and 24 h after drug administration; plasma samples were collected by centrifugation of the vein blood samples at 3000 rpm or 4000 rpm for 10 minutes, and stored at −20° C. or −70° C. For gavage administration, the animals were administered with a dose of 2.5 mg/kg or 5 mg/kg, and vein blood samples (0.3 mL) were collected at the time points of 0.25, 0.5, 1.0, 2.0, 4.0, 6.0, 8.0 and 24 h after drug administration; plasma samples were collected by centrifugation at 3000 rpm or 4000 rpm for 10 minutes, and stored at −20° C. or −70° C. The positive control is suvorexant.
(§2) The above plasma samples were analyzed by the LC-MS/MS system.

[2] = Pharmacokinetic evaluation after intravenous or gavage administration to dogs; format: in vivo, Beagle dogs; conditions: beagle, dog, in vivo
Experimental: as §1, §2

[3] = HEK-293 cells, calcium flux induced by 10 nM orexin B, read-out: OX2 IC50

| Structure (SMILES) | IC50 (humanized OX2 receptor; [3]) [nM] | AUC(0-inf) ([1]; iv, 1 mg/kg) [ng·h/mL] | AUC(0-t) ([1]; iv, 1 mg/kg) [ng·h/mL] | Cmax ([1]; iv, 1 mg/kg) [ng/mL] | MRT inf ([1]; iv, 1 mg/kg) [min] | Vd ([1]; iv, 1 mg/kg) [L/kg] | clearance ([1]; iv, 1 mg/kg) [mL/min/kg] | half-life ([1]; iv, 1 mg/kg) [min] | AUC(0-inf) ([1]; po, 2.5 mg/kg) [ng·h/mL] | AUC(0-t) ([1]; po, 2.5 mg/kg) [ng·h/mL] | Cmax ([1]; po, 2.5 mg/kg) [ng/mL] | F ([1]; po, 2.5 mg/kg) [%] | MRT inf ([1]; po, 2.5 mg/kg) [min] | half-life ([1]; po, 2.5 mg/kg) [min] | IC50 (humanized OX1 receptor) [nM] | also measured |
| --- | --- | --- | --- | --- | --- | --- | --- | --- | --- | --- | --- | --- | --- | --- | --- | --- |
| Cc1ccc(-n2nccn2)c(C(=O)N2CC3CN(c4ncc5cc(F)ccc5n4)CC3C2)c1 (centres unmarked) [Example 12, (5-(6-fluoroquinazolin-2-yl)hexahydropyrrolo[3,4-c]pyrrol-2(1H)-yl)(5-methyl-2-(2H-1,2,3-triazol-2-yl)phenyl)methanone] | 140 | 460 | 460 | 749 | 25.6 | 0.987 | 40.1 | 24.3 | 454 | 452 | 340 | 39.3 | 76.8 | 50.2 | 347 | AUC(0-inf) ([2]; iv, 1 mg/kg): 1140 ng·h/mL; AUC(0-t) ([2]; iv, 1 mg/kg): 1130 ng·h/mL; Cmax ([2]; iv, 1 mg/kg): 1390 ng/mL; MRT inf ([2]; iv, 1 mg/kg): 58.2 min; Vd ([2]; iv, 1 mg/kg): 0.85 L/kg; clearance ([2]; iv, 1 mg/kg): 14.7 mL/min/kg; half-life ([2]; iv, 1 mg/kg): 42 min; AUC(0-inf) ([2]; po, 5 mg/kg): 7880 ng·h/mL; AUC(0-t) ([2]; po, 5 mg/kg): 7310 ng·h/mL; Cmax ([2]; po, 5 mg/kg): 2310 ng/mL; F ([2]; po, 5 mg/kg): 129.4%; MRT inf ([2]; po, 5 mg/kg): 187 min; half-life ([2]; po, 5 mg/kg): 119 min |
| O=C(c1ccccc1-n1nccn1)N1CC2CN(c3nc4cc(F)ccc4o3)CC2C1 (centres unmarked) [Example 5, (2-(2H-1,2,3-triazol-2-yl)phenyl)(5-(5-fluorobenzo[d]oxazol-2-yl)hexahydropyrrolo[3,4-c]pyrrol-2(1H)-yl)methanone] | 235 |  |  |  |  |  |  |  |  |  |  |  |  |  | 642 |  |
| O=C(c1ccccc1-n1nccn1)N1CC2CN(c3nc4cc(Cl)ccc4o3)CC2C1 (centres unmarked) [Example 2, (2-(2H-1,2,3-triazol-2-yl)phenyl)(5-(5-chlorobenzo[d]oxazol-2-yl)hexahydropyrrolo[3,4-c]pyrrol-2(1H)-yl)methanone] | 221 | 551 | 549 | 639 | 47.2 | 1.42 | 30.4 | 36.1 | 790 | 783 | 485 | 57.3 | 88.8 | 61.8 |  |  |
| Cc1ccc(-n2nccn2)c(C(=O)N2CC3CN(c4nc5cc(F)ccc5o4)CC3C2)c1 (centres unmarked) [Example 4, (5-(5-fluorobenzo[d]oxazol-2-yl)hexahydropyrrolo[3,4-c]pyrrol-2(1H)-yl)(5-methyl-2-(2H-1,2,3-triazol-2-yl)phenyl)methanone] |  |  |  |  |  |  |  |  |  |  |  |  |  |  | 611 | IC50 (humanized OX2 receptor): 342 nM |

The next lines start with results.

| IC50 (humanized OX2 receptor; [3]) [nM] | AUC(0-inf) ([1]; iv, 1 mg/kg) [ng·h/mL] | AUC(0-t) ([1]; iv, 1 mg/kg) [ng·h/mL] | Cmax ([1]; iv, 1 mg/kg) [ng/mL] | MRT inf ([1]; iv, 1 mg/kg) [min] | Vd ([1]; iv, 1 mg/kg) [L/kg] | clearance ([1]; iv, 1 mg/kg) [mL/min/kg] | half-life ([1]; iv, 1 mg/kg) [min] | AUC(0-inf) ([1]; po, 2.5 mg/kg) [ng·h/mL] | AUC(0-t) ([1]; po, 2.5 mg/kg) [ng·h/mL] | Cmax ([1]; po, 2.5 mg/kg) [ng/mL] | F ([1]; po, 2.5 mg/kg) [%] | MRT inf ([1]; po, 2.5 mg/kg) [min] | half-life ([1]; po, 2.5 mg/kg) [min] | Structure (SMILES) | IC50 (humanized OX1 receptor) [nM] | also measured |
| --- | --- | --- | --- | --- | --- | --- | --- | --- | --- | --- | --- | --- | --- | --- | --- | --- |
| 201 |  |  |  |  |  |  |  |  |  |  |  |  |  | O=C(c1c(F)cccc1-n1nccn1)N1CC2CN(c3nc4cc(F)ccc4o3)CC2C1 (centres unmarked) [Example 6, (2-fluoro-6-(2H-1,2,3-triazol-2-yl)phenyl)(5-(5-fluorobenzo[d]oxazol-2-yl)hexahydropyrrolo[3,4-c]pyrrol-2(1H)-yl)methanone] | 589 |  |
|  | 865 | 864 | 1270 | 32.9 | 0.648 | 20.1 | 30.1 | 752 | 750 | 537 | 34.7 | 70.2 | 41 | O=C(c1ccccc1-n1nccn1)N1CC2CN(c3ncc4cc(F)ccc4n3)CC2C1 (centres unmarked) [Example 13, (2-(2H-1,2,3-triazol-2-yl)phenyl)(5-(6-fluoroquinazolin-2-yl)hexahydropyrrolo [3,4-c]pyrrol-2(1H)-yl)methanone] |  |  |
| 147 | 626 | 624 | 760 | 45.5 | 1.21 | 26.7 | 34.6 | 907 | 904 | 567 | 57.9 | 82.2 | 52.4 | O=C(c1c(F)cccc1-n1nccn1)N1CC2CN(c3nc4cc(Cl)ccc4o3)CC2C1 (centres unmarked) [Example 3, (5-(5-chlorobenzo[d]oxazol-2-yl)hexahydropyrrolo[3,4-c]pyrrol-2(1H)-yl)(2-fluoro-6-(2H-1,2,3-triazol-2-yl)phenyl)methanone] |  | AUC(0-inf) ([2]; iv, 1 mg/kg): 8330 ng·h/mL; AUC(0-t) ([2]; iv, 1 mg/kg): 8320 ng·h/mL; Cmax ([2]; iv, 1 mg/kg): 3830 ng/mL; MRT inf ([2]; iv, 1 mg/kg): 175 min; Vd ([2]; iv, 1 mg/kg): 1.75 L/kg; half-life ([2]; iv, 1 mg/kg): 144 min; AUC(0-t) ([2]; po, 5 mg/kg): 35000 ng·h/mL; Cmax ([2]; po, 5 mg/kg): 5640 ng/mL; F ([2]; po, 5 mg/kg): 84.0%; MRT inf ([2]; po, 5 mg/kg): 275 min; half-life ([2]; po, 5 mg/kg): 176 min |
